The text below walks through data of PubChem BioAssay (NCI).

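Results reflect a 48-hour exposure of cells in 96-well plates to compound at five concentrations. GI50 is the concentration that inhibits growth by half. TGI marks complete inhibition of growth.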 A value given as a limit tells only on which side of the number the result lay.

Some test systems named below: A549 NSCLC; HCT-15 colon; HS 578T breast; IGROV1 ovarian; NCI-H460 lung; RPMI-8226 leukemia; SK-MEL-5 melanoma; SK-OV-3 ovarian.
What all share (test): DTP human tumour cell line panel, 48 h

With `COc1ccc(/C=C2\COc3ccc(O)c(O)c3C2=O)c(OC)c1OC`, the GI50 with A549 NSCLC is 3.11 µM; in the experiment on HCT-15 colon, 1.74 µM; with HS 578T breast, 4.22 µM; in the experiment on IGROV1 ovarian, 2.09 µM; with NCI-H460 lung it was 2.4 µM; in the experiment on RPMI-8226 leukemia, 0.457 µM. Moreover, the values for the GI50 with SK-MEL-5 melanoma and in the experiment on SK-OV-3 ovarian were 2.25 µM and 3.24 µM, respectively. For the same compound, the TGI in the experiment on A549 NSCLC was more than 100 µM; in the experiment on HCT-15 colon, 5.51 µM; in the experiment with HS 578T breast it was more than 100 µM; in the experiment with IGROV1 ovarian, 7.21 µM; in the experiment with NCI-H460 lung, 5.75 µM; with RPMI-8226 leukemia, 2.95 µM. Moreover, the TGI with SK-MEL-5 melanoma was 5.33 µM; in the experiment with SK-OV-3 ovarian, more than 100 µM.
As to `CC1(C)N=C(N)N=C(N)N1c1ccc(Cl)cc1`, the GI50 is 1.25 µM in the experiment on A549 NSCLC; 18.7 µM with HCT-15 colon; more than 100 µM in the experiment on HS 578T breast; 2.27 µM with IGROV1 ovarian; 2.82 µM in the experiment with NCI-H460 lung; more than 100 µM with RPMI-8226 leukemia. Besides, the GI50 with SK-MEL-5 melanoma was 3.99 µM; in the experiment with SK-OV-3 ovarian, 43 µM. Besides, the TGI with A549 NSCLC, with HCT-15 colon, in the experiment on HS 578T breast, in the experiment with IGROV1 ovarian, with NCI-H460 lung and in the experiment with RPMI-8226 leukemia was more than 100 µM in each case. Further, the TGI with SK-MEL-5 melanoma and in the experiment on SK-OV-3 ovarian was more than 100 µM each time.
Turning to `CC1=C(C)C(=O)O[C@@H]([C@](C)(O)[C@]2(O)CC[C@@]3(O)[C@@H]4C[C@H](O)[C@]5(O)[C@@H](O)C=CC(=O)[C@]5(C)[C@H]4CC[C@]23C)C1`, the TGI with A549 NSCLC, with HCT-15 colon, with HS 578T breast, in the experiment on IGROV1 ovarian, in the experiment on NCI-H460 lung and in the experiment on RPMI-8226 leukemia was more than 100 µM each time. Also, the concentration for total growth inhibition (TGI) in the experiment on SK-MEL-5 melanoma and in the experiment on SK-OV-3 ovarian was more than 100 µM throughout.
As for `COC1=C(C)C(=O)c2c(c(CCCl)c3n2CCC3OC(C)=O)C1=O` (stereo not drawn), the GI50 in the experiment with A549 NSCLC was 0.165 µM; in the experiment with HCT-15 colon it was 0.155 µM; with HS 578T breast, 0.417 µM; in the experiment on IGROV1 ovarian it was 1.65 µM; with NCI-H460 lung it was 0.0389 µM; in the experiment on RPMI-8226 leukemia, 2.84 µM. The GI50 with SK-MEL-5 melanoma was 0.0849 µM; in the experiment on SK-OV-3 ovarian, 0.279 µM. Besides, the TGI amounted to 0.913 µM with A549 NSCLC; 2.35 µM in the experiment with HCT-15 colon; 3.62 µM in the experiment on HS 578T breast; 10.1 µM in the experiment on IGROV1 ovarian; 1.29 µM in the experiment with NCI-H460 lung; 27.3 µM in the experiment with RPMI-8226 leukemia. Also, the results for the TGI in the experiment with SK-MEL-5 melanoma and with SK-OV-3 ovarian were 0.228 µM and 0.983 µM, respectively.
Consider `CC(=O)CC/C=C(\C)[C@H](O)[C@H](C)C(=O)O[C@H]1C[C@H](C)C=C2C=C[C@@]3(C)O[C@@H](O)CC(=O)[C@]3(C)[C@H]21`, for which the GI50 was 1.24 µM with A549 NSCLC; 0.545 µM in the experiment on HCT-15 colon; 0.492 µM in the experiment with HS 578T breast; 0.42 µM in the experiment with IGROV1 ovarian; 0.379 µM in the experiment on NCI-H460 lung; 0.308 µM in the experiment on RPMI-8226 leukemia. Also, the GI50 with SK-MEL-5 melanoma was 0.598 µM; in the experiment with SK-OV-3 ovarian, 1.26 µM. For the same compound, the TGI in the experiment on A549 NSCLC stood at 9.17 µM; in the experiment with HCT-15 colon it was 7.95 µM; in the experiment on HS 578T breast, 4.48 µM; in the experiment with IGROV1 ovarian it was 3.42 µM; with NCI-H460 lung, 7.38 µM; in the experiment with RPMI-8226 leukemia, 2.25 µM. In addition, the values for the TGI with SK-MEL-5 melanoma and with SK-OV-3 ovarian were 2.08 µM and 6.42 µM, respectively.
Turning to `CCCCCCn1c(SC)nc(COC(=O)NC)c1COC(=O)NC`, the concentration for total growth inhibition (TGI) with A549 NSCLC was 31.5 µM; with HCT-15 colon it was more than 100 µM; in the experiment with HS 578T breast, 40.3 µM; with IGROV1 ovarian, 30.5 µM; with NCI-H460 lung it was 37.3 µM; with RPMI-8226 leukemia it was 67.7 µM. The TGI with SK-MEL-5 melanoma worked out at 30.3 µM; in the experiment on SK-OV-3 ovarian, 33.2 µM.
`CC(C)(C)CC(C)(C)c1ccc(O)c(Cc2ccc(Cl)cc2Cl)c1`: the GI50 in the experiment on A549 NSCLC is 1.51 µM; in the experiment on HCT-15 colon, 1.74 µM; in the experiment on HS 578T breast, 1.71 µM; in the experiment with IGROV1 ovarian, 1.7 µM; in the experiment with NCI-H460 lung it was 1.62 µM; in the experiment on RPMI-8226 leukemia it was 1.24 µM. In addition, the GI50 in the experiment with SK-MEL-5 melanoma was 1.6 µM; in the experiment on SK-OV-3 ovarian, 1.5 µM. Further, the TGI in the experiment on A549 NSCLC worked out at 2.83 µM; with HCT-15 colon, 3.18 µM; in the experiment on HS 578T breast it was 3.72 µM; in the experiment on IGROV1 ovarian, 3.12 µM; with NCI-H460 lung, 2.97 µM; in the experiment with RPMI-8226 leukemia it was 3.66 µM. For the same compound, the TGI in the experiment on SK-MEL-5 melanoma stood at 2.95 µM; in the experiment on SK-OV-3 ovarian, 2.82 µM.
On to `C=CC(=O)N1C[C@@H]2CCOc3c(Cl)c(-c4c(O)cccc4F)c(F)c4ncnc(c34)N2C[C@H]1C`, for which the GI50 is 15.3 µM in the experiment with A549 NSCLC; 11.8 µM in the experiment with HCT-15 colon; 16.5 µM in the experiment on HS 578T breast; 17.4 µM in the experiment on IGROV1 ovarian; 15.2 µM in the experiment on NCI-H460 lung; 5.96 µM in the experiment with RPMI-8226 leukemia. Besides, the GI50 in the experiment on SK-MEL-5 melanoma is 13.1 µM; in the experiment with SK-OV-3 ovarian, 17.3 µM. The TGI was 34.7 µM in the experiment with A549 NSCLC; 26.6 µM in the experiment with HCT-15 colon; 89.2 µM in the experiment with HS 578T breast; 46.6 µM in the experiment on IGROV1 ovarian; 32.1 µM with NCI-H460 lung; more than 100 µM in the experiment on RPMI-8226 leukemia. Moreover, the TGI amounted to 25.9 µM with SK-MEL-5 melanoma and 42.7 µM in the experiment on SK-OV-3 ovarian.
For `O=C(c1ccc(C(F)(F)F)c(Cl)c1)N(Cc1ccc(Cl)cc1)c1ccc(-c2cc(C(F)(F)F)[nH]n2)c(O)c1`, the GI50 in the experiment with A549 NSCLC was 1.35 µM; in the experiment with HCT-15 colon, 0.777 µM; in the experiment with HS 578T breast, 1.05 µM; in the experiment on IGROV1 ovarian it was 0.887 µM; in the experiment with NCI-H460 lung, 1.16 µM; with RPMI-8226 leukemia it was 0.659 µM. Besides, the figures for the GI50 in the experiment on SK-MEL-5 melanoma and in the experiment with SK-OV-3 ovarian were 0.816 µM and 1.37 µM, respectively. In addition, the total growth inhibition concentration (TGI) with A549 NSCLC was 5.11 µM; in the experiment with HCT-15 colon it was 1.97 µM; with HS 578T breast, 3.03 µM; in the experiment with IGROV1 ovarian, 2.13 µM; in the experiment with NCI-H460 lung, 3.12 µM; in the experiment on RPMI-8226 leukemia, 2.23 µM. The TGI with SK-MEL-5 melanoma worked out at 1.55 µM; in the experiment on SK-OV-3 ovarian, 4.89 µM.
